Measurements published in ChEMBL document CHEMBL5291721, “A preclinical secondary pharmacology resource illuminates target-adverse drug reaction associations of marketed drugs” (Nat Commun, 2023).

Tests used:
[1] = biological target: Acetylcholinesterase (Homo sapiens, UniProt P22303); type: functional
[2] = biological target: T1, Adenosine receptor A3 (Homo sapiens, UniProt P0DMS8)
T1 sequence (P0DMS8 whole entry): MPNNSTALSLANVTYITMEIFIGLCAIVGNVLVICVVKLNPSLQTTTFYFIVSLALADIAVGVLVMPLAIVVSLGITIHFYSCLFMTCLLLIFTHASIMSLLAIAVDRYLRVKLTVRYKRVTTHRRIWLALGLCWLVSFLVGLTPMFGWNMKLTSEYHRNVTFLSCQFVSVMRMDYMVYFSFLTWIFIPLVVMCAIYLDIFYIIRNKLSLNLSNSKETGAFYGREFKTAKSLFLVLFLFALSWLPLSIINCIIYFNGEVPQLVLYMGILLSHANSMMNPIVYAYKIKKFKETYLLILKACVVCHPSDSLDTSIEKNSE

[3] = biological target: T2, Alpha-1A adrenergic receptor (Homo sapiens, UniProt P35348); type: functional, cell-based
T2 sequence (P35348 whole entry): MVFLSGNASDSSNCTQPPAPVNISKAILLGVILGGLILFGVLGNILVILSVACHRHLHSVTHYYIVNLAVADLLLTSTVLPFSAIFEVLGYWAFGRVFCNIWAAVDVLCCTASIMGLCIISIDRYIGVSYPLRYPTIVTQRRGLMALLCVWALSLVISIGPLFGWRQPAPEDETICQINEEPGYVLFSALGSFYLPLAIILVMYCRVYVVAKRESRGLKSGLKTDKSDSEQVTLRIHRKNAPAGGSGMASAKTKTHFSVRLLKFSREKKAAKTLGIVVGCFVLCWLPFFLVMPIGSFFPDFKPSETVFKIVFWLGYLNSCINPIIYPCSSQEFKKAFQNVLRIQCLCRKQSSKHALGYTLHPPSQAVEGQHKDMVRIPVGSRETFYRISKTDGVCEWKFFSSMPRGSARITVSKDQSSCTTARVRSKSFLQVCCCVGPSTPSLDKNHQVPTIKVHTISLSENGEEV

[4] = biological target: D(1A) dopamine receptor (Homo sapiens, UniProt P21728)
[5] = biological target: D(3) dopamine receptor (Homo sapiens, UniProt P35462)
[6] = biological target: Prothrombin (Homo sapiens, UniProt P00734); type: functional
[7] = biological target: Histamine H3 receptor (Homo sapiens, UniProt Q9Y5N1)
[8] = biological target: 5-hydroxytryptamine receptor 2B (Homo sapiens, UniProt P41595); type: functional, cell-based
[9] = biological target: Voltage-gated inwardly rectifying potassium channel KCNH2 (Homo sapiens, UniProt Q12809); type: functional; conditions: read-out: AC50
[10] = biological target: Mu-type opioid receptor (Homo sapiens, UniProt P35372)
[11] = biological target: T3, Progesterone receptor (Homo sapiens, UniProt P06401)
T3 sequence (P06401 whole entry): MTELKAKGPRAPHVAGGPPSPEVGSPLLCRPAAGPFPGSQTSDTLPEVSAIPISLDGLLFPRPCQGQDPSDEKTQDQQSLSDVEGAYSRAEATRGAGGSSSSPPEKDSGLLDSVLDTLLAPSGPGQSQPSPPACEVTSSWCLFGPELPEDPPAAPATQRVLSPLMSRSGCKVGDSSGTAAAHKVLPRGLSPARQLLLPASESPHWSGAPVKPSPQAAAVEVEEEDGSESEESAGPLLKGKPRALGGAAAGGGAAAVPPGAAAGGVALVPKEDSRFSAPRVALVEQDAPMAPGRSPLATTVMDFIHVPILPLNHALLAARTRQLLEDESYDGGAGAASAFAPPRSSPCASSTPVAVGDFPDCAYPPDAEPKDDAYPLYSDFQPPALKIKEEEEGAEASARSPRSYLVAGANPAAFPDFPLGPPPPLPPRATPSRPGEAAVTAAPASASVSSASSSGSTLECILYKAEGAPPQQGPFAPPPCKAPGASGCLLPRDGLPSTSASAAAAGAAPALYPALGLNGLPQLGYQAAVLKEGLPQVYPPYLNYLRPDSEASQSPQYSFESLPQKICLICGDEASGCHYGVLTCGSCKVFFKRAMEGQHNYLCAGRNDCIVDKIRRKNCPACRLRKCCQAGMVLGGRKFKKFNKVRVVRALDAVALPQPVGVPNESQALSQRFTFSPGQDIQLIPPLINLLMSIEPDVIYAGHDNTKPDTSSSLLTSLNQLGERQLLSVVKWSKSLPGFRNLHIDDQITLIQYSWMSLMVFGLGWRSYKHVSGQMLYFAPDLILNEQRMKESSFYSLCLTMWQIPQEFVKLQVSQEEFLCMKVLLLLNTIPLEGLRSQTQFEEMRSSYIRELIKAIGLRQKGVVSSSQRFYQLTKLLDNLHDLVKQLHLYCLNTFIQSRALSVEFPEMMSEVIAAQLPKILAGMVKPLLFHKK

[12] = biological target: T4, Prostaglandin G/H synthase 1 (Homo sapiens, UniProt P23219); type: functional
[13] = biological target: T4, Prostaglandin G/H synthase 1; type: functional; remark: listed apart in the source
[14] = biological target: Sodium-dependent dopamine transporter (Homo sapiens, UniProt Q01959)
[15] = biological target: Sodium-dependent serotonin transporter (Homo sapiens, UniProt P31645)
[16] = biological target: T5, Thromboxane A2 receptor (Homo sapiens, UniProt P21731); type: functional, cell-based
T5 sequence (P21731 whole entry): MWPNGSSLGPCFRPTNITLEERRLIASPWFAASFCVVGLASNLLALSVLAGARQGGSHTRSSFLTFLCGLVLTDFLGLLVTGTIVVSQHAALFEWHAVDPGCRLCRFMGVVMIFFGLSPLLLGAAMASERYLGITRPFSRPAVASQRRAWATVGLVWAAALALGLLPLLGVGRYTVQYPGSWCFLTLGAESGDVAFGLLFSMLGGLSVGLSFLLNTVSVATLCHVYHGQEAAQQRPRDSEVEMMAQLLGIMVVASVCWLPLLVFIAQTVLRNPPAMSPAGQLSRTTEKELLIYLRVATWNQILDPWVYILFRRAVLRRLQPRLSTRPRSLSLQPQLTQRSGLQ

[17] = biological target: T5, Thromboxane A2 receptor; type: functional, cell-based; remark: listed apart in the source
Note: assay procedure not described here.

T4 sequence (P23219 whole entry): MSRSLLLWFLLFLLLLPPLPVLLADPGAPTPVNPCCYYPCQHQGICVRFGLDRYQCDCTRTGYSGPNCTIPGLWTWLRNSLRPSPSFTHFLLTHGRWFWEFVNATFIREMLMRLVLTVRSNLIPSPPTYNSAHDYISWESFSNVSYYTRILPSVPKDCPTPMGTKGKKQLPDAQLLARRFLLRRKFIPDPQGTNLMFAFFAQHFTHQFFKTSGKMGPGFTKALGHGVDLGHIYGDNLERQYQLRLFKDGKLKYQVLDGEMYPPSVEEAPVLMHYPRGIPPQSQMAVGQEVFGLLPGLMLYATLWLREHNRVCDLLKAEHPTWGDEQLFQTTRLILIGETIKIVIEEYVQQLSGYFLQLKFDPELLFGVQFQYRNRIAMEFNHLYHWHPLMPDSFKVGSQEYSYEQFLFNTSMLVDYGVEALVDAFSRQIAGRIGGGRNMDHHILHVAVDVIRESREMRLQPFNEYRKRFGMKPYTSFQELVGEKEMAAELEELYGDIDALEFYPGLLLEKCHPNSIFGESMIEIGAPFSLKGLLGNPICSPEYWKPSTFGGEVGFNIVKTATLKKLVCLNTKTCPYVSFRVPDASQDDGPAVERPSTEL
Sequence of 5-hydroxytryptamine receptor 2B (P41595 whole entry): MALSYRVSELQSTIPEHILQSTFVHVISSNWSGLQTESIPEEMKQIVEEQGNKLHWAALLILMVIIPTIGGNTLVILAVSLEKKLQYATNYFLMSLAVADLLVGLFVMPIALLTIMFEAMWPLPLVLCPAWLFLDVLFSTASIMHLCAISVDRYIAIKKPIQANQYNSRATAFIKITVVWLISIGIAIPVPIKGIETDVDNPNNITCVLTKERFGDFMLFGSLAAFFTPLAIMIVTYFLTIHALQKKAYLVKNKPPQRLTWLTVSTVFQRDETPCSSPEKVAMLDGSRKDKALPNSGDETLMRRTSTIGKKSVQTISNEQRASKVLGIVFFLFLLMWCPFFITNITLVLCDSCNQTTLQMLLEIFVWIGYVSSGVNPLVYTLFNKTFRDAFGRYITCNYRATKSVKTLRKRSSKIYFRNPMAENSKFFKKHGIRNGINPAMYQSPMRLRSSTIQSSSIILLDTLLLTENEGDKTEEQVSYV
Sequence of Sodium-dependent serotonin transporter (P31645 whole entry): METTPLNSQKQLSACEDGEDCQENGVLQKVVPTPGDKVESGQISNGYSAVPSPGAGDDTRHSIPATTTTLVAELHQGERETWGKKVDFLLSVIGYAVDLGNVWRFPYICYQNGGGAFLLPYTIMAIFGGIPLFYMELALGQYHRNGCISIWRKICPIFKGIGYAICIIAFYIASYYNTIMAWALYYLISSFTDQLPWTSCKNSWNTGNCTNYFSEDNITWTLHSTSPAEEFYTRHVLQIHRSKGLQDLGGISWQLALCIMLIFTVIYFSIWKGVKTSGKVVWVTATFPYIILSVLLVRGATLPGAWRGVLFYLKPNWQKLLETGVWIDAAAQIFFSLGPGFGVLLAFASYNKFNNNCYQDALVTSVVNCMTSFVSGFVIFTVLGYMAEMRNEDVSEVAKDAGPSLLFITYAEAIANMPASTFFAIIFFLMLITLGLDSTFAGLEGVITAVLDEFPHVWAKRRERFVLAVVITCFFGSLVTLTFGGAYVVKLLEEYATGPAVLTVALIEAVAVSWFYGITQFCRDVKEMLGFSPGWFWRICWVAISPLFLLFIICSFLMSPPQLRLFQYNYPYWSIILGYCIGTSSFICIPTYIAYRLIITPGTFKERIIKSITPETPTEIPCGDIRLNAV
Sequence of Sodium-dependent dopamine transporter (Q01959 whole entry): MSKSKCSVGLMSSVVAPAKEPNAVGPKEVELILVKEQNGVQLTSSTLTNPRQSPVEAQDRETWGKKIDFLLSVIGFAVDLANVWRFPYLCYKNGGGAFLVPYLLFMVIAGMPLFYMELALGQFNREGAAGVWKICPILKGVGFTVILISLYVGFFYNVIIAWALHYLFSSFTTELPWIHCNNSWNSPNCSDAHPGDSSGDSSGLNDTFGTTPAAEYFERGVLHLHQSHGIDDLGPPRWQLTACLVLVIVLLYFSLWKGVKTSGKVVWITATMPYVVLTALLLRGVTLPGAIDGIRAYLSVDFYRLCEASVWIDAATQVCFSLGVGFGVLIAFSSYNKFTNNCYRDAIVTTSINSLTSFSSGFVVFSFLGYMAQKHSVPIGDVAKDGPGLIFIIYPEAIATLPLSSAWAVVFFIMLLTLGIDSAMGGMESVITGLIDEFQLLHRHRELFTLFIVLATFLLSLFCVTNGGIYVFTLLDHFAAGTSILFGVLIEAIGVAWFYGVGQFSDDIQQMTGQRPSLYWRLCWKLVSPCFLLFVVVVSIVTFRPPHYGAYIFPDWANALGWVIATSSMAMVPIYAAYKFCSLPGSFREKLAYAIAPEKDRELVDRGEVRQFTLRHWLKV
Sequence of Acetylcholinesterase (P22303 whole entry): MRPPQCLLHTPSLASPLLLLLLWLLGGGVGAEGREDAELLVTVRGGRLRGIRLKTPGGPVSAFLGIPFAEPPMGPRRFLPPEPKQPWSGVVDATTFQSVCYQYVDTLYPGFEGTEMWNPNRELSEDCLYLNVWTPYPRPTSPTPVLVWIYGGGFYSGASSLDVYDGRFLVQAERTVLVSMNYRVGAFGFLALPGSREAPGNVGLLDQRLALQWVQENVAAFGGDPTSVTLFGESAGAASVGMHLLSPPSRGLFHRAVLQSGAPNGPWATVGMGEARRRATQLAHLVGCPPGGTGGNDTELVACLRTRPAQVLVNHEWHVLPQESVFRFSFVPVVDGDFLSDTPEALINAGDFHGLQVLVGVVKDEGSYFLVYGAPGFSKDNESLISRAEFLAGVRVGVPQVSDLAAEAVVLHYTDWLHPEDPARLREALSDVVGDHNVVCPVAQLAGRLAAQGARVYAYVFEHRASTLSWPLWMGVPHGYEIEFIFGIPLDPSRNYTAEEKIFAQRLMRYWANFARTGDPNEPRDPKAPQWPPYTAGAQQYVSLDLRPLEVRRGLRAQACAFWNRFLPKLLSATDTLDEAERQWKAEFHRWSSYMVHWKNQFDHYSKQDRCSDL
Sequence of Histamine H3 receptor (Q9Y5N1 whole entry): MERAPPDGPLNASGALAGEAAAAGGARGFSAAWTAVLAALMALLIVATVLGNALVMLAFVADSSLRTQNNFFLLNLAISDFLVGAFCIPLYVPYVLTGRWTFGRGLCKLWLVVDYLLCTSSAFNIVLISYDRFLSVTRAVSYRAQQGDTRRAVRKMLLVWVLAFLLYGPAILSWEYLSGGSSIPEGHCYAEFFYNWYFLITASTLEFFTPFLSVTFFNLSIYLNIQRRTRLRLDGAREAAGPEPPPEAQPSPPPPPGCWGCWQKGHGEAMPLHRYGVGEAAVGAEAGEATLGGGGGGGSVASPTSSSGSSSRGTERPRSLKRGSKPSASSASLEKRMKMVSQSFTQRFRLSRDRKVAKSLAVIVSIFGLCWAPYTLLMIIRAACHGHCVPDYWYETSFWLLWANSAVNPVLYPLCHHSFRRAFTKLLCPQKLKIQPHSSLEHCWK
Sequence of Voltage-gated inwardly rectifying potassium channel KCNH2 (Q12809 whole entry): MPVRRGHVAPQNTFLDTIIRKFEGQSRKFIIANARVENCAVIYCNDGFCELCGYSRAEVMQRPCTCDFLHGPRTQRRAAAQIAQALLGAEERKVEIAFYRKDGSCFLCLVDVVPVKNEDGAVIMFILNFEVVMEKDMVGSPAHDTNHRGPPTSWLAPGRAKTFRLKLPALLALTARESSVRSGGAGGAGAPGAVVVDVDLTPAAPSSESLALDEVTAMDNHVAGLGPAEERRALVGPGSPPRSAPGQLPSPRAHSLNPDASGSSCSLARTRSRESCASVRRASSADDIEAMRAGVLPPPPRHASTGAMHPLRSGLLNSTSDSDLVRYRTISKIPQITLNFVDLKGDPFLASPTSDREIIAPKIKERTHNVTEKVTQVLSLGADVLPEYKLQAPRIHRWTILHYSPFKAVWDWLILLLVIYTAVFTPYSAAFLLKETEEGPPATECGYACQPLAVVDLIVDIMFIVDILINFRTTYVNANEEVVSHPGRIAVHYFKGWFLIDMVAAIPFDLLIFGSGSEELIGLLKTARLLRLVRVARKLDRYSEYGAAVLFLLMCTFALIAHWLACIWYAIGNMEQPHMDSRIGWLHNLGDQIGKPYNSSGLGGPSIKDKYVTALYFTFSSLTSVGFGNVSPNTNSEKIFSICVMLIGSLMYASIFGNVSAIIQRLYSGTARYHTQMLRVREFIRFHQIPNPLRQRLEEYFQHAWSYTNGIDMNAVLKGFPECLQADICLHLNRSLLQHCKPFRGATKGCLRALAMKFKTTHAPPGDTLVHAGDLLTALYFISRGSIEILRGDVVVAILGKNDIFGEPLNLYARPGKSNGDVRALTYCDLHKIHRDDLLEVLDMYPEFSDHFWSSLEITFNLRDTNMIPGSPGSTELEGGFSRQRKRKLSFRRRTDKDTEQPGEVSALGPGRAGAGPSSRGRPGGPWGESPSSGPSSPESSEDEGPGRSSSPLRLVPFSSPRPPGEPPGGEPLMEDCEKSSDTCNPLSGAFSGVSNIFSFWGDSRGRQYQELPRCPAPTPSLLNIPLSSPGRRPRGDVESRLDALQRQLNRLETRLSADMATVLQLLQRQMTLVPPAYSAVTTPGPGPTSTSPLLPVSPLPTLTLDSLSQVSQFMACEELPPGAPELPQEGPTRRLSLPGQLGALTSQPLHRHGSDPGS
Sequence of Mu-type opioid receptor (P35372 whole entry): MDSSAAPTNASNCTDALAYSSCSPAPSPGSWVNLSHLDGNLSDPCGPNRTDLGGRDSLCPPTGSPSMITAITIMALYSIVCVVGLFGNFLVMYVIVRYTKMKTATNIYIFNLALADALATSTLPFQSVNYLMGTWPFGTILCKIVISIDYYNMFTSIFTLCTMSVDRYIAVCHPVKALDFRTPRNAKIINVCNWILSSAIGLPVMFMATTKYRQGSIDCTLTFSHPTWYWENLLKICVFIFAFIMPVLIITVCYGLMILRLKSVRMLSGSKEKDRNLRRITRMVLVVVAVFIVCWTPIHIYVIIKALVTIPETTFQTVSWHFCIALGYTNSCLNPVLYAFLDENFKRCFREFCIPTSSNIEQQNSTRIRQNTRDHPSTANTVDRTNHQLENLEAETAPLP

SMILES	AC50 [1] [µM]	AC50 [2] [µM]	AC50 [3] [µM]	AC50 [4] [µM]	AC50 [5] [µM]	AC50 [6] [µM]	AC50 [7] [µM]	AC50 [8] [µM]	AC50 [9] [µM]	AC50 [10] [µM]	AC50 [11] [µM]	AC50 [12] [µM]	AC50 [13] [µM]	AC50 [14] [µM]	AC50 [15] [µM]	AC50 [16] [µM]	AC50 [17] [µM]
Cc1nc(-c2ccc(OCC(C)C)c(C#N)c2)sc1C(=O)O [FEBUXOSTAT]	> 30	> 30	> 30	> 30	> 30	> 30	> 30	> 30	> 30	> 30	16.1	> 30	> 30	> 30	> 30	> 30	> 30
COc1ccc(CCC(C)NCC(O)c2ccc(O)c([S+](C)[O-])c2)cc1 (centres undefined) [SULFINALOL]	> 30	> 30	20.3	> 30	> 30	> 30	> 30	> 30	> 30	> 30	> 30	> 30	> 30	> 30	0.866	> 30	> 30
